ChEMBL document CHEMBL5346934 (J Med Chem, 2023)

Legend:
Cowpox virus [1] = test: Antiviral activity against Cowpox virus infected in Vero cells measured after 4 days by colorimetric assay; format: functional, organism-based; conditions: 96 h
Vaccinia virus [2] = test: Antiviral activity against Vaccinia virus infected in African green monkey Vero cells assessed as reduction virus induced cytopathic effect incubated for 24 hrs by MTT assay; format: functional, organism-based; conditions: Orthopoxvirus vaccinia
Vaccinia virus [3] = test: Antiviral activity against Vaccinia virus infected in African green monkey BSC-1 cells; format: functional, organism-based, Orthopoxvirus vaccinia; conditions: Orthopoxvirus vaccinia, BSC-1
Vaccinia virus [4] = test: Antiviral activity against Vaccinia virus VG9 infected in African green monkey BSC-1 cells; format: functional, organism-based, Orthopoxvirus vaccinia; conditions: Orthopoxvirus vaccinia, VG9, BSC-1
Vaccinia virus [5] = test: Antiviral activity against Vaccinia virus Copenhagen infected in African green monkey Vero cells measured after 4 days by colorimetric assay; format: functional, organism-based; conditions: Orthopoxvirus vaccinia, 96 h
Vaccinia virus [6] = test: Antiviral activity against Vaccinia virus IHD-J infected in BSC40 cells assessed as reduction in plaque formation measured after 72 hrs by crystal violet staining based analysis; format: functional, organism-based; conditions: Orthopoxvirus vaccinia, BSC-40, 72 h
Ectromelia virus = test: Antiviral activity against ectromelia virus K-1 infected in Vero cells measured after 4 days by colorimetric assay; format: functional, organism-based; conditions: K-1, Vero, 96 h
Cowpox virus [7] = test: Antiviral activity against Cowpox virus Grishak infected in African green monkey Vero cells measured after 4 days by colorimetric assay; format: functional, organism-based; conditions: 96 h
Vaccinia virus [8] = test: Antiviral activity against Vaccinia virus infected in African green monkey CV-1 cells assessed as reduction in virus-induced cytopathic effect incubated for 5 days by colorimetric analysis; format: functional, organism-based; conditions: Orthopoxvirus vaccinia, CV-1, 120 h
HEL = test: Cytotoxicity against human HEL cells assessed as reduction in cell growth; format: functional
Vaccinia virus [9] = test: Antiviral activity against Vaccinia virus infected in human HEL cells; format: functional, organism-based; conditions: Orthopoxvirus vaccinia
Vaccinia virus [10] = test: Antiviral activity against Vaccinia virus Copenhagen infected in human HFF cells assessed as assessed as reduction in virus-induced cytopathic effect incubated for 7 days by microscopic analysis; format: functional, organism-based; conditions: Orthopoxvirus vaccinia, 168 h

SMILES: Nc1ccn(C[C@@H](CO)OCP(=O)(O)O)c(=O)n1 [CIDOFOVIR ANHYDROUS]
- EC50 (Cowpox virus [1]): 44700 nM
- EC50 (Vaccinia virus [2]): 46200 nM

SMILES: C#C[C@]1(OC(=O)CCCCCC)CC[C@H]2[C@@H]3CCC4=CC(=O)CC[C@@H]4[C@H]3CC[C@@H]21
- EC50 (Vaccinia virus [3]): 3900 nM
- EC50 (Vaccinia virus [4]): 2700 nM

SMILES: O=C(NN1C(=O)C2C3C=CC(C4CC34)C2C1=O)c1cc(Br)cc(Br)c1O (stereo not given)
- IC50 (Vaccinia virus [5]): 1.05 µg/mL

SMILES: Cc1nn(C)c(C)c1CCOc1c(-c2ccc3c(c2)c(CN(C)C)nn3C)ccc(F)c1F
- EC50 (Vaccinia virus [6]): 130 nM

SMILES: CC1(C)[C@@H]2CC=C(C(=O)NC34CC5CC(CC(C5)C3)C4)[C@H]1C2
- IC50 (Vaccinia virus [5]): 2500 nM
- IC50 (Ectromelia virus): 1700 nM
- IC50 (Cowpox virus [7]): 7200 nM

SMILES: CC1(C)[C@@H]2CC=C(CNC(=O)C34CC5CC(CC(C5)C3)C4)[C@H]1C2
- IC50 (Vaccinia virus [5]): 1700 nM
- IC50 (Ectromelia virus): 2700 nM
- IC50 (Cowpox virus [7]): 4700 nM

SMILES: CCCCCCCCCCCC[N+]12CC[N+](CC#CC[N+]34CC[N+](CCCCCCCCCCCC)(CC3)CC4)(CC1)CC2
- EC50 (Vaccinia virus [8]): 100000 nM

SMILES: O=C(NN1C(=O)C2C3C=CC(C4CC34)C2C1=O)c1cc(Cl)cc(Cl)c1 (stereo not given)
- IC50 (Vaccinia virus [5]): 0.95 µg/mL

SMILES: O=C1N(Nc2ccc(Br)c(Cl)c2)C(=O)C23C4C=CC5C4C4C(C=CC42)C153
- CC50 (HEL): > 100000 nM
- IC50 (Vaccinia virus [9]): 600 nM

SMILES: CCOc1ccc2c(c1)[C@H]1C=CC[C@H]1[C@H](c1ccccc1Cl)N2
- EC50 (Vaccinia virus [10]): 13900 nM

SMILES: Nc1cc(OC[C@H](CO)OCP(=O)(O)O)nc(N)n1
- EC50 (Cowpox virus [1]): 46200 nM

SMILES: CC1(C)[C@@H]2CC[C@@]1(C)[C@H](NC(=O)c1ccc([N+](=O)[O-])cc1)C2
- IC50 (Vaccinia virus [5]): 900 nM
- IC50 (Ectromelia virus): 8000 nM
- IC50 (Cowpox virus [7]): 18400 nM

SMILES: CC(=O)OCC(COC(C)=O)OCn1cnc2c(N)ncnc21
- EC50 (Cowpox virus [1]): 2000 nM

SMILES: N=c1ccn2c(n1)O[C@H]1[C@H](O)[C@@H](CO)O[C@H]12 [ANCITABINE]
- EC50 (Vaccinia virus [8]): 10000 nM

SMILES: CCCCCCCCCCCCCCCCOCCCOP1(=O)COCC(Cn2ccc(N)nc2=O)O1 (stereo not given)
- EC50 (Vaccinia virus [2]): 3800 nM

SMILES: COC(=O)Nc1nc2cc(C(=O)c3ccccc3)ccc2[nH]1 [MEBENDAZOLE]
- EC50 (Vaccinia virus [3]): 5600 nM
- EC50 (Vaccinia virus [4]): 9200 nM

SMILES: O=C1N(Nc2ccc(Cl)c(Br)c2)C(=O)C23C4C=CC5C4C4C(C=CC42)C153
- CC50 (HEL): > 100000 nM
- IC50 (Vaccinia virus [9]): 160 nM

SMILES: CO[C@H]1[C@H](O)[C@H](O[C@H]2CC[C@@]3(C)[C@H](CC[C@@H]4[C@@H]3CC[C@]3(C)[C@@H](C5=CC(=O)OC5)CC[C@]43O)C2)O[C@@H](C)[C@@H]1O [NERIIFOLIN]
- EC50 (Vaccinia virus [8]): 5000 nM

SMILES: O=C1N(Nc2ccc([N+](=O)[O-])cc2)C(=O)C23C4C=CC5C4C4C(C=CC42)C153
- CC50 (HEL): > 100000 nM
- IC50 (Vaccinia virus [9]): 3000 nM

SMILES: Cc1ccnc(NC(c2ccccc2F)c2ccc3cccnc3c2O)c1 (stereo not given)
- EC50 (Vaccinia virus [10]): 2900 nM

SMILES: CC(=O)C1=C2C=CCCN2C(=O)NC1c1cccc(F)c1 (stereo not given)
- IC50 (Vaccinia virus [2]): 100 nM

SMILES: COc1c(C)c2c(c(O)c1C/C=C(\C)CCC(=O)O)C(=O)OC2 [MYCOPHENOLIC ACID]
- EC50 (Vaccinia virus [8]): 1000 nM

SMILES: CC1(C)[C@@H]2CC[C@@]1(C)[C@@H](NC(=O)C1CCCCC1)C2
- IC50 (Vaccinia virus [5]): 1400 nM
- IC50 (Ectromelia virus): 6200 nM
- IC50 (Cowpox virus [7]): 14400 nM

SMILES: C[C@H]1O[C@@H](O[C@H]2[C@@H](O)C[C@H](O[C@H]3[C@@H](O)C[C@H](O[C@H]4CC[C@@]5(C)[C@H](CC[C@@H]6[C@@H]5C[C@@H](O)[C@]5(C)[C@@H](C7=CC(=O)OC7)CC[C@]65O)C4)O[C@@H]3C)O[C@@H]2C)C[C@H](O)[C@@H]1O [DIGOXIN]
- EC50 (Vaccinia virus [8]): 250 nM

SMILES: O=C1N(Nc2ccc(Br)cc2)C(=O)C23C4C=CC5C4C4C(C=CC42)C153
- CC50 (HEL): > 100000 nM
- IC50 (Vaccinia virus [9]): 7300 nM

SMILES: CC(=O)C1=C2C=CCCN2C(=O)NC1c1ccccc1Br (stereo not given)
- IC50 (Vaccinia virus [2]): 300 nM

SMILES: COc1c(C)c2c(c(O)c1C/C=C(\C)CCC(=O)OCCN1CCOCC1)C(=O)OC2 [MYCOPHENOLATE MOFETIL]
- EC50 (Vaccinia virus [3]): 200 nM
- EC50 (Vaccinia virus [4]): 100 nM

SMILES: CCCCCCCCCCCCCC[N+]12CC[N+](CCCC(=O)N[C@@H](Cc3c[nH]cn3)C(=O)O)(CC1)CC2
- EC50 (Vaccinia virus [8]): 400000 nM

SMILES: O=C1N(Nc2ccc(Cl)cc2)C(=O)C23C4C=CC5C4C4C(C=CC42)C153
- CC50 (HEL): > 100000 nM
- IC50 (Vaccinia virus [9]): 8300 nM

SMILES: CC1(C)[C@@H]2CC[C@@]1(C)[C@@H](NC(=O)c1ccc(Br)cc1)C2
- IC50 (Vaccinia virus [5]): 360 nM
- IC50 (Ectromelia virus): 700 nM
- IC50 (Cowpox virus [7]): 1900 nM

SMILES: CC1(C)[C@@H]2CC=C(CCNC(=O)C34CC5CC(CC(C5)C3)C4)[C@H]1C2
- IC50 (Vaccinia virus [5]): 1800 nM
- IC50 (Ectromelia virus): 1600 nM
- IC50 (Cowpox virus [7]): 4100 nM

SMILES: Cc1ccc(C2Nc3ccccc3C(=O)N2c2ccccc2)s1 (stereo not given)
- EC50 (Vaccinia virus [6]): 2200 nM

SMILES: COc1ccc(C[C@H]2NC[C@H](O)[C@H]2OC(C)=O)cc1 [ANISOMYCIN]
- EC50 (Vaccinia virus [8]): 250 nM

SMILES: CO[C@H]1C[C@H](O[C@H]2CC[C@]3(C=O)[C@H]4CC[C@]5(C)[C@@H](C6=CC(=O)OC6)CC[C@]5(O)[C@@H]4CC[C@]3(O)C2)O[C@H](C)[C@H]1O [CYMARIN]
- EC50 (Vaccinia virus [8]): 250 nM
